pKi: −log10 of the molar value.
molecular target: Cannabinoid receptor 1 (Homo sapiens, UniProt P21554); assay: Antagonist activity at CB1 receptor (unknown origin)
Sequence (P21554 whole entry): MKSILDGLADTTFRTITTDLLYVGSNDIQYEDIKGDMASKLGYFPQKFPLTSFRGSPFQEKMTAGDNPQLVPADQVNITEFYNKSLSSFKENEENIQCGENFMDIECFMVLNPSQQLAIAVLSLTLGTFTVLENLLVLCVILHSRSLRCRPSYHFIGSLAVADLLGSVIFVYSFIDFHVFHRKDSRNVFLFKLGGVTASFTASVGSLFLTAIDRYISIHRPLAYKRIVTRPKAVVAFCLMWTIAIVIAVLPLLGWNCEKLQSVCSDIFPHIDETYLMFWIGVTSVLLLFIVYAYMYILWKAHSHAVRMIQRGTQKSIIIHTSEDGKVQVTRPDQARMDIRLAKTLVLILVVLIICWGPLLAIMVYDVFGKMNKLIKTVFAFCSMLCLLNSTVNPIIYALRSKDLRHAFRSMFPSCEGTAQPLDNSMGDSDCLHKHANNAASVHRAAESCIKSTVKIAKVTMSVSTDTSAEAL

Compound	pKi
Cc1c(C(=O)NCCO)nn(-c2ccc(Cl)cc2Cl)c1-c1ccc(Br)cc1	5.95
Cc1c(C(=O)NN2CCOCC2)nn(-c2ccc(Cl)cc2Cl)c1-c1ccc(I)cc1	7.88
CCCCCn1nc(C(=O)NN2CCCCC2)c(C)c1-c1ccc(Br)cc1	7.09
Cc1c(C(=O)NN2CCOCC2)nn(-c2ccc(Cl)cc2Cl)c1-c1ccccc1Br	7.93
CCCCCCCn1nc(C(=O)NN2CCCCC2)cc1-c1ccccc1	6.49
Cc1c(C(=O)NN2CCCCC2)nn(-c2ccc(Cl)cc2Cl)c1-c1ccc(Br)cc1	7.12
Cc1ccc(Cn2nc(C(=O)NC3CC4CCC3(C)C4(C)C)c(C)c2-c2ccc(Cl)c(C)c2)cc1 (stereo not drawn)	6.40
O=C(NN1CCCCC1)c1nn(-c2ccc(Cl)cc2Cl)c2c1CCCc1cc([N+](=O)[O-])ccc1-2	7.20
Cc1c(C(=O)NCC23CC4CC(CC(C4)C2)C3)nn(CCCCCCl)c1-c1ccccc1	8.22
COc1ccc(-c2c(F)c(C(=O)NN3CCCCC3)nn2-c2ccc(Cl)cc2Cl)cc1	7.74
Cc1c(C(=O)Nc2ccc(-c3ccsc3)cc2)nn(CCCCCCl)c1-c1ccccc1	7.70
Cc1c(C(=O)NN)nn(-c2ccc(Cl)cc2Cl)c1-c1ccc(Cl)cc1	6.43
Cc1c(NC(=O)N2CCCCC2)nn(-c2ccc(Cl)cc2Cl)c1-c1ccc(Br)cc1	7.33
CCCCCCCn1nc(C(=O)NN2CCCCC2)c(C)c1-c1ccccc1	6.69
Cc1c(C(=O)NN2CCCCC2)nn(C2CCCCC2)c1-c1ccccc1	6.22
Cc1c(C(=O)NN2CCCCC2)nn(-c2ccc(Cl)cc2Cl)c1-c1ccc(N)cc1	7.09
CCCn1nc(C(=O)NN2CCCCC2)c(C)c1-c1ccccc1	5.45
Cc1c(C(=O)NN2CCCCC2)nn(C)c1-c1ccc(Cl)cc1	4.46
O=C(NN1CCCCC1)c1nn(-c2ccc(Cl)cc2Cl)c2c1CCCc1c-2cccc1[N+](=O)[O-]	7.00
Cc1c(C(=O)N(C)c2ccccc2)nn(-c2ccc(Cl)cc2Cl)c1-c1ccc(Br)cc1	7.51
CCCCCn1nc(C(=O)NN2CCCCC2)cc1-c1ccccc1	6.59
COCc1c(C(=O)NC2CCCCC2)nn(-c2ccc(Cl)cc2Cl)c1C1C2(C)CCC(C2)C1(C)C (stereo not drawn)	6.62
O=C(NC1CCCCC1)c1nn(-c2ccc(Cl)cc2Cl)c(-c2ccc(Br)cc2)c1CO	8.22

Reference: ChEMBL document CHEMBL3046337, “Activity landscape analysis, CoMFA and CoMSIA studies of pyrazole CB1 antagonists” (Med Chem Res, 2013)
